These results are taken from patent US8686224B2, “Plant defense signal peptides” (priority 2005, dated 2014).

Experiment [1] has as its target T1, AtPEPR1 (Arabidopsis thaliana, UniProt Q9SSL9).
T1 construct: Tobacco cells were transformed with a CaMV-35S-AtPEPR1 gene; expressed in transfected cells; host or cells: tobacco suspension-cultured cells (Agrobacterium-mediated, CaMV 35S promoter)
T1 sequence (Q9SSL9 29-1123): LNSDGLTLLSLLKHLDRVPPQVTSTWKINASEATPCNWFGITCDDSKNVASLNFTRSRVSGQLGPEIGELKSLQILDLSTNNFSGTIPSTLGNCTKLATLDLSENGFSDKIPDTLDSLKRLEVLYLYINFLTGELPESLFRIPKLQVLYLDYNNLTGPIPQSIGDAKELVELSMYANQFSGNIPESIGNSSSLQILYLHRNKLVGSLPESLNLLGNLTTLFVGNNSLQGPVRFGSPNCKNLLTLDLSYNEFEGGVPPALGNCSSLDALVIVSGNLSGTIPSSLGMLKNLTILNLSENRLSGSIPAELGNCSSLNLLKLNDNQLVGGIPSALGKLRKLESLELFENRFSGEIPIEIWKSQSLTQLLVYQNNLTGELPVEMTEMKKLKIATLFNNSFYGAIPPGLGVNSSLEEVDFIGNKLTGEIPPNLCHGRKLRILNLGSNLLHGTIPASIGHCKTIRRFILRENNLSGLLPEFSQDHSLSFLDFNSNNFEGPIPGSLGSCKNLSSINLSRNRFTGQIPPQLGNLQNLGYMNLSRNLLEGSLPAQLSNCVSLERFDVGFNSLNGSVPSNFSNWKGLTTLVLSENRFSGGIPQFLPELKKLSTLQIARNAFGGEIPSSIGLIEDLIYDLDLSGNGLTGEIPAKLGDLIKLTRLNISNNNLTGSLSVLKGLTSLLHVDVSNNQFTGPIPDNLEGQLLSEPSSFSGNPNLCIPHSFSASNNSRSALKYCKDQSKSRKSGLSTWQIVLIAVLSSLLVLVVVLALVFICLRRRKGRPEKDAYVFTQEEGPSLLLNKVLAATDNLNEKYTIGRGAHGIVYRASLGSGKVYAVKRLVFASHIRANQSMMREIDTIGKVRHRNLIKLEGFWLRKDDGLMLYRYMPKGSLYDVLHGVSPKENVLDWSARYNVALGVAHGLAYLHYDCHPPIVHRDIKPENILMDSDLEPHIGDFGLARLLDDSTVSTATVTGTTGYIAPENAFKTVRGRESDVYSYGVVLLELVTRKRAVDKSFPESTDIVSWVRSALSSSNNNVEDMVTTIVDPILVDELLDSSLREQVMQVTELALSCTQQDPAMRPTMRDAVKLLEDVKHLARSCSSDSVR
The experiment in a line: Medium alkalinization of transgenic tobacco cells expressing AtPEPR1. The class given is cell-based. The source says:
Tobacco cells were transformed with a CaMV-35S-AtPEPR1 gene to determine whether the foreign receptor protein was targeted to the cell surface, where, in response to AtPep1, it would activate intracellular signaling to effect the alkalinization of the medium of the transgenic tobacco cells. Expression of the AtPEPR1 gene was confirmed by RT-PCR analysis of RNA from three independently transformed tobacco cell lines. […] AtPep2-7 was also supplied to the transgenic tobacco cells expressing AtPEPR1.
To clarify whether AtPEPR2 binds to AtPep1, the AtPEPR2 coding region was fused to the CaMV 35S promoter and introduced into tobacco suspension-cultured cells by Agrobacterium. Tobacco cells expressing AtPEPR1 and GUS genes were also created as positive and negative controls, respectively. […] These transgenic lines were analyzed for alkalinizing activity as previously described (Pearce et al., Proc. Natl. Acad. Sci. USA 98, 12843-12847, 2001).
The response to all AtPep peptides in transgenic tobacco cells expressing either AtPEPR1 or AtPEPR2 was analyzed by the medium alkalinization assay.

Experiment [2] concerns AtproPep1, MPK3 and WRKY gene expression. Description: Marker gene induction in two-week-old seedlings grown in liquid medium (RT-PCR, qRT-PCR). It counts as in vivo, Arabidopsis thaliana. As to the method: Using AtproPep1 and MPK3 as marker genes, the response to AtPep1 of the T-DNA insertional mutants was analyzed. […] […]1 and […]2 mutants are unable to respond to AtPEP1. To further examine the importance of […]1 and […]2 in AtPep1 signaling, the expression level of WRKY transcription factor genes, WRKY22, WRKY29, WRKY33. WRKY53 and WRKY55, were monitored by qRT-PCR after supplying AtPep1 to wild type Arabidopsis and T-DNA insertional mutants of […]1 and […]2. These WRKY genes were reported to be induced by the fungal PAMP, chitin (Wan et al., Plant Cell 20: 471-481, 2008), and the bacterial PAMPs, […] et al., Cell 125:749-760, 2006). […] In the double mutants, […] […] We also examined the effect of supplying AtPep1 to the double mutants on the expression of the antimicrobial protein genes, defensin (PDF1.2) and pathogenesis related protein (PR-1) […] peptides are known to induced these genes (Huffaker and Ryan, Proc. Natl. Acad. Sci. USA 104: 10732-10736, 2007). Since the expression levels of PDF1.2 and PR-1 gene in Arabidopsis seedlings grown in liquid medium were already high, the method of supplying AtPep1 was changed. Four-week-old Arabidopsis plants grown in soil were sprayed with 1 μM AtPep1 in 0.01% Silwet L-77, and subjected to qRT-PCR analysis after 6 hours.

The target in experiment [3] is T1, AtPEPR1. The experiment in a line: Photoaffinity labeling of transgenic tobacco cells expressing AtPEPR1. It counts as binding. As to conditions: 50 nM unlabeled competitor, 0.25 nM label. As to the method: For final confirmation, a photoaffinity-labeling experiment was performed using the transgenic tobacco cells. The transgenic cells were incubated with 0.25 nM ^125I1-azido-Cys-AtPep1 (Yamaguchi et al., Proc. Natl. Acad. Sci. USA 103: 10104-10109, 2006) and irradiated with UV-B to cross-link the AtPep1-binding proteins. After separation of extracted proteins by SDS-PAGE, the labeled proteins were detected on X-ray film. […] Since no specific labeling was detected in wild type tobacco and GUS expressing cells, the proteins labeled specifically by ^125I1-azido-Cys-AtPep1 in AtPEPR1 and AtPEPR2 expressing cells were products from the AtPEPR1 and AtPEPR2 genes.

[4] abbreviates: AtPEPR1 expressing tobacco cells.

Entries after “also recorded” stand apart in the source; their conditions may differ.

Turning to H-ATKVKAKQRGKEKVSSGRPGQHN-OH [AtPep1], the EC50 – broadly, the concentration giving half of the maximal effect – at AtPEPR1 [1] is approximately 0.25 nM. For the same substance, on AtPEPR1 [1] (setting [4]), the “alkalinization of the medium” value is “strong, reproducible alkalinization; also recorded: caused alkalinization of the media” and the maximal change came out at 1.2 pH units. In addition, the “response (AtproPep1, MPK3) in double mutants of AtPEPR1 and AtPEPR2” value in experiment [2] (10 nM for 30 min) is reported as “completely lost the response”. For the same substance, in experiment [2] (10 nM for 30 min, SALK_036564 and SALK_004447), the “response (AtproPep1, MPK3) in AtPEPR2 mutants” value is “did not show the clear reduction”. Besides, the “reduction of AtproPep1 and MPK3 induction in AtPEPR1 mutants” value in experiment [2] (10 nM for 30 min, SALK_059281 and SALK_014538) was more than 50%. In addition, in experiment [2] (10 nM, 30 min), the “WRKY responses in double mutants pepr1-1/pepr2-1 and pepr1-2/pepr2-2” value is recorded as “completely abolished”; the “lower induction of WRKY genes in pepr1-1 and pepr1-2” value is 50%. Also, the “induction of WRKY33, WRKY53, WRKY22, WRKY29 and WRKY55” value in experiment [2] (10 nM, 30 min, wild type) is recorded as “highly induced”. The “labeling of the 170 kDa protein by 125I1-azido-Cys-AtPep1 with competitor” value on AtPEPR1 [3] is on record as “not in the cells incubated with 50 nM unlabeled AtPep1”.
